Holding throughout (assay): MIC, agar dilution test; Denley multipoint inoculation procedure
Assay type in all cases: cell-based
On the technique in general: Agar dilution tests growth on a series of plates holding different concentrations.

The subject of one experiment is Klebsiella 6179. Conditions: read-out: Minimum inhibitory concentration (MIC).
Another experiment has as its system Staphylococcus Fk422. Conditions: read-out: Minimum inhibitory concentration (MIC).
Another experiment deals with Staphylococcus 133. Conditions: read-out: Minimum inhibitory concentration (MIC).
The test system of a further experiment is Klebsiella 57 USA. As to conditions: read-out: Minimum inhibitory concentration (MIC).
The next experiment concerns Klebsiella 8085. Conditions: read-out: Minimum inhibitory concentration (MIC).
A further experiment concerns Serratia 16040. As to conditions: read-out: Minimum inhibitory concentration (MIC).
A further experiment concerns E. coli Neumann. As to conditions: Escherichia coli, read-out: Minimum inhibitory concentration (MIC).
Another experiment deals with Providencia 12052. Conditions: read-out: Minimum inhibitory concentration (MIC).
For the next experiment, the system named is Staphylococcus 1756. As to conditions: read-out: Minimum inhibitory concentration (MIC).

Values after ≈ are worked out from the molar mass of the structure shown.

Turning to `CC1CN(c2cc3c(cc2F)c(=O)c(C(=O)O)cn3C2CC2)CCN1` (stereo not drawn) [Example 1, 1-cyclopropyl-6-fluoro-1,4-dihydro-4-oxo-7-(3-methyl-1-piperazinyl)quinoline-3-carboxylicacid semihydrate], the MIC in the experiment with Klebsiella 6179 was 0.125 µg/mL; in the experiment with Staphylococcus Fk422 it was 0.25 µg/mL; in the experiment on Staphylococcus 133, 0.25 µg/mL; with Klebsiella 57 USA it was 0.03 µg/mL; with Klebsiella 8085, at most 0.015 µg/mL; in the experiment on Serratia 16040 it was 4 µg/mL. Besides, the MIC with E. coli Neumann is at most 0.015 µg/mL; in the experiment with Providencia 12052, 16 µg/mL; in the experiment on Staphylococcus 1756, 0.25 µg/mL.

For the compound `C[C@@H]1CN(c2cc3c(cc2F)c(=O)c(C(=O)O)cn3C2CC2)C[C@H](C)N1` [Example 3, 1-cyclopropyl-6-fluoro-1,4-dihydro-4-oxo-7-(3,5-dimethyl-1-piperazinyl)quinoline-3-carboxylic acid], the MIC is 0.25 µg/mL (≈ 0.696 µM) with Klebsiella 6179; 0.5 µg/mL (≈ 1.39 µM) in the experiment on Staphylococcus Fk422; 0.25 µg/mL (≈ 0.696 µM) in the experiment with Staphylococcus 133; 0.125 µg/mL (≈ 0.348 µM) with Klebsiella 57 USA; at most 0.015 µg/mL with Klebsiella 8085; 16 µg/mL (≈ 44.5 µM) in the experiment with Serratia 16040. Also, the MIC with E. coli Neumann is at most 0.015 µg/mL; in the experiment on Providencia 12052 it was 16 µg/mL (≈ 44.5 µM); in the experiment with Staphylococcus 1756, 0.25 µg/mL (≈ 0.696 µM).

For `CCN1CCN(c2cc3c(cc2F)c(=O)c(C(=O)O)cn3C2CC2)CC1C.I.O` (stereo not drawn) [Example 4, 1-cyclopropyl-6-fluoro-1,4-dihydro-4-oxo-7-(4-ethyl-3-methyl-1-piperazinyl)quinoline-3-carboxylic acid hydriodide monohydrate], the MIC is 0.25 µg/mL in the experiment with Klebsiella 6179; 0.5 µg/mL in the experiment on Staphylococcus Fk422; 0.25 µg/mL in the experiment with Staphylococcus 133; 0.25 µg/mL in the experiment on Klebsiella 57 USA; at most 0.015 µg/mL in the experiment with Klebsiella 8085; 16 µg/mL in the experiment on Serratia 16040. The MIC in the experiment with E. coli Neumann came to 0.03 µg/mL; with Providencia 12052 it was 32 µg/mL; with Staphylococcus 1756, 0.5 µg/mL.

Take `CCN1[C@H](C)CN(c2cc3c(cc2F)c(=O)c(C(=O)O)cn3C2CC2)C[C@@H]1C` [Example 5, 1-cyclopropyl-6-fluoro-1,4-dihydro-4-oxo-7-(4-ethyl-3,5-dimethyl-1-piperazinyl)quinoline-3-carboxylic acid hydriodide]: the MIC turned out to be 0.5 µg/mL (≈ 1.29 µM) in the experiment on Klebsiella 6179; 0.5 µg/mL (≈ 1.29 µM) in the experiment with Staphylococcus Fk422; 0.5 µg/mL (≈ 1.29 µM) in the experiment with Staphylococcus 133; 0.5 µg/mL (≈ 1.29 µM) in the experiment with Klebsiella 57 USA; 0.03 µg/mL (≈ 0.0774 µM) in the experiment with Klebsiella 8085; 32 µg/mL (≈ 82.6 µM) in the experiment with Serratia 16040. Also, the values for the MIC with E. coli Neumann, with Providencia 12052 and with Staphylococcus 1756 were 0.03 µg/mL (≈ 0.0774 µM), 32 µg/mL (≈ 82.6 µM) and 0.5 µg/mL (≈ 1.29 µM), respectively.
